In experiment [1] the target is Carboxylic ester hydrolase (Equus caballus, UniProt Q9N1N9). Briefly: Cholinesterase Activity Assay. The procedure:
(§1) The eight synthesized dialkyl-3-cyanopropylphosphates (3a-h) were dissolved in0.01 M dimethyl sulphoxide and then diluted in demineralized water to 1 mM and 0.1 mM.

The target in another experiment is Acetylcholinesterase (Electrophorus electricus, UniProt O42275). Briefly: Cholinesterase Activity Assay. The method, then:
as §1

Chain of Carboxylic ester hydrolase (Q9N1N9 whole entry): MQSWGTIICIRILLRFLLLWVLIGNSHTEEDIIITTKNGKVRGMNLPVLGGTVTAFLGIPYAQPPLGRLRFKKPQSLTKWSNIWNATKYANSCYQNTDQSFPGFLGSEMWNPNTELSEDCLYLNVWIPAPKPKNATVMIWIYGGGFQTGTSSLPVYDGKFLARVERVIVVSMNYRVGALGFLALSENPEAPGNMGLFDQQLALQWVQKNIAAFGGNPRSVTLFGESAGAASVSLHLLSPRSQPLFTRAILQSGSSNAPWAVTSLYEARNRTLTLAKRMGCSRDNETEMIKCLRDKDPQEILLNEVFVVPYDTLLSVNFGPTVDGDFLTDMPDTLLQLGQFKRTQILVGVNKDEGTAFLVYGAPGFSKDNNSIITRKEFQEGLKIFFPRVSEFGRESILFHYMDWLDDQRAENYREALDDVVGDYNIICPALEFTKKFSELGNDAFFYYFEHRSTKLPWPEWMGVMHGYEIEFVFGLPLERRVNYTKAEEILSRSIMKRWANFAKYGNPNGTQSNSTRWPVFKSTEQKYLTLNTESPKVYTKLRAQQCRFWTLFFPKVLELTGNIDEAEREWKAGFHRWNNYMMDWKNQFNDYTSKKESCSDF
Chain of Acetylcholinesterase (O42275 whole entry): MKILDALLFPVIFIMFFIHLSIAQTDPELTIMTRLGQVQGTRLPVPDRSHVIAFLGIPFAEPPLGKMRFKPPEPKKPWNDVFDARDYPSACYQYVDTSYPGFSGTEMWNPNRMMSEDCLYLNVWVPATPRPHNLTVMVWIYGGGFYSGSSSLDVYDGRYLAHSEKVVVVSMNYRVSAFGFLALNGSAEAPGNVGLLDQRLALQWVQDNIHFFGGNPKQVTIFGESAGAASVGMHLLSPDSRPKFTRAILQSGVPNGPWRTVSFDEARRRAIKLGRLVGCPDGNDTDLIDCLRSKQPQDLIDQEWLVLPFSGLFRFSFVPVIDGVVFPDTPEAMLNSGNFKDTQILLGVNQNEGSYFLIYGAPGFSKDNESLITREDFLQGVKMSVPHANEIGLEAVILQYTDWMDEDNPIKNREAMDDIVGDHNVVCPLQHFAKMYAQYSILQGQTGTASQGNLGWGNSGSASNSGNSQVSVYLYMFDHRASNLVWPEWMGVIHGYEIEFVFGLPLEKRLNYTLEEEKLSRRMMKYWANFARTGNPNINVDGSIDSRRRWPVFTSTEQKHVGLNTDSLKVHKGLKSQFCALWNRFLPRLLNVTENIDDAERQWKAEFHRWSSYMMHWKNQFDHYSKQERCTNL

`CCOP(=O)(OCC)OC(CCC#N)c1ccc(C)cc1` (stereo unspecified) [Diethyl-3-cyano-1-p-tolylpropylphosphate (3c)]: the concentration for half-maximal inhibition (IC50) (commonly the concentration needed to halve the response being measured) was determined as 5.96 µM in experiment [1] and 9.61 µM at Acetylcholinesterase.

In the case of `CCOP(=O)(OCC)OC(c1ccccc1)C(C)CC#N` (stereo unspecified) [Diethyl-3-cyano-2-methyl-1-phenylpropylphosphate (3g)], the values for the 50% inhibitory concentration (IC50) (in experiment [1]; at Acetylcholinesterase) were 17.8 µM and 35.8 µM, respectively.

`CCOP(=O)(OCC)OC(CCC#N)c1ccccc1` (stereo unspecified) [Diethyl-3-cyano-1-phenylpropylphosphate (3a)]: the figures for the IC50 (in experiment [1]; on Acetylcholinesterase) were 18.1 µM and 33.6 µM, respectively.

For `COc1ccc(C(CCC#N)OP(=O)(OC)OC)cc1` (stereo unspecified) [Dimethyl-3-cyano-1-(4-methoxyphenyl)propylphosphate (3f)], the figures for the IC50 (in experiment [1]; against Acetylcholinesterase) were 23.3 µM and 36.8 µM, respectively.

With `COP(=O)(OC)OC(c1ccccc1)C(C)CC#N` (stereo unspecified) [Dimethyl-3-cyano-2-methyl-1-phenylpropylphosphate (3h)], the IC50 came to 20.6 µM in experiment [1] and 29.5 µM on Acetylcholinesterase.

`COP(=O)(OC)OC(CCC#N)c1ccc(C)cc1` (stereo unspecified) [Dimethyl-3-cyano-1-p-tolylpropylphosphate (3d)]: the 50% inhibitory concentration (IC50) amounted to 16 µM in experiment [1] and 17.3 µM against Acetylcholinesterase.

With `CCOP(=O)(OCC)OC(CCC#N)c1ccc(OC)cc1` (stereo unspecified) [Diethyl-3-cyano-1-(4-methoxyphenyl)propylphosphate (3e)], the concentration for half-maximal inhibition (IC50) in experiment [1] came out at 20.7 µM; at Acetylcholinesterase it was 53.7 µM.

For the molecule `COP(=O)(OC)OC(CCC#N)c1ccccc1` (stereo unspecified) [Dimethyl-3-cyano-1-phenylpropylphosphate (3b)], the 50% inhibitory concentration (IC50) is 19.3 µM in experiment [1] and 31.4 µM at Acetylcholinesterase.

The record behind these values is BindingDB's records for doi:10.7270/Q21G0K51 (University of Carthage, 2017).
